In patent US20240374598A1, “INHIBITORS OF HUMAN IMMUNODEFICIENCY VIRUS REPLICATION” (ViiV HEALTHCARE UK (NO.5) LIMITED, priority 2018, published 2024):

Assays:
[1] = tested on: recombinant NL4-3 virus (nef section replaced with Renilla luciferase gene) in MT-2 cells; assay: HIV cell culture assay (antiviral activity, luciferase readout); assay type: cell-based; conditions: NL43, MT-2 cells infected for 4-5 days with recombinant NL4-3 Renilla luciferase virus
Protocol: HIV cell culture assay—MT-2 cells, 293T cells and the proviral DNA clone of NL4-3 virus were obtained from the NIH AIDS Research and Reference Reagent Program. MT-2 cells were propagated in RPMI 1640 media supplemented with 10% heat inactivated fetal bovine serum (FBS), […]. The 293T cells were propagated in DMEM media supplemented with 10% heat inactivated FBS, […]. A recombinant NL4-3 proviral clone, in which a section of the nef gene was replaced with the Renilla luciferase gene, was used to make the reference virus used in these studies. The recombinant virus was prepared through transfection of the recombinant NL4-3 proviral clone into 293T cells using Transit-293 Transfection Reagent from Mirus Bio LLC (Madison, WI). Supernatent was harvested after 2-3 days and the amount of virus present was titered in MT-2 cells using luciferase enzyme activity as a marker by measuring luciferase enzyme activity. Luciferase was quantitated using the EnduRen Live Cell Substrate from Promega (Madison, WI). Antiviral activities of compounds toward the recombinant virus were quantified by measuring luciferase activity in MT-2 cells infected for 4-5 days with the recombinant virus in the presence of serial dilutions of the compound.
The 50% effective concentration (EC50) was calculated by using the exponential form of the median effect equation where (Fa)=1/[1+(ED50/drug conc.)m] (Johnson VA, Byington RT. Infectivity Assay. In Techniques in HIV Research. ed. Aldovini A, Walker BD. 71-76. New York: Stockton Press. 1990). The 50% inhibitory concentration (EC50) was calculated by using the exponential form of the median effect equation where percent inhibition=1/[1+(EC50/drug concentration)m], where m is a parameter that reflects the slope of the concentration-response curve.

[2] = Compound cytotoxicity, XTT-based colorimetric assay; assay type: cell-based; conditions: human; uninfected MT2 cells, day 4, XTT assay
Protocol: Compound cytotoxicity and the corresponding CC50 values were determined using the same protocol as described in the antiviral assay except that uninfected cells were used. Cytotoxicity was assessed on day 4 in uninfected MT2 cells by using a XTT (2,3-bis[2-Methoxy-4-nitro-5-sulfophenyl]-2H-tetrazolium-5-carboxyanilide inner salt)-based colorimetric assay (Sigma-Aldrich, St Louis, Mo).

Structure (SMILES)	EC50 [1] [nM]	CC50 at 4 day [2] [nM]
CC(F)(F)c1ccc2c(=O)n(-c3ccc(Cl)c4c(NS(C)(=O)=O)nn(CC(F)F)c34)c([C@H](Cc3cc(F)cc(F)c3)NC(=O)Cn3nc(C(F)F)c4c3C(F)(F)[C@@H]3C[C@H]43)nc2c1 [Example 17, N—((S)-1-(3-(4-chloro-1-(2,2-difluoroethyl)-3-(methylsulfonamido)-1H-indazol-7-yl)-7-(1,1-difluoroethyl)-4-oxo-3,4-dihydroquinazolin-2-yl)-2-(3,5-difluorophenyl)ethyl)-2-((3bS,4aR)-3-(difluoromethyl)-5,5-difluoro-3b,4,4a,5-tetrahydro-1H-cyclopropa[3,4]cyclopenta[1,2-c]pyrazol-1-yl)acetamide]	0.083	> 1000
CC(F)(F)c1ccc2c(=O)n(-c3ccc(Cl)c4c(NS(=O)(=O)C5CC5)nn(CC(F)F)c34)c([C@H](Cc3cc(F)cc(F)c3)NC(=O)Cn3nc(C(F)F)c4c3C(F)(F)[C@@H]3C[C@H]43)nc2c1 [Example 18, N—((S)-1-(3-(4-chloro-3-(cyclopropanesulfonamido)-1-(2,2-difluoroethyl)-1H-indazol-7-yl)-7-(1,1-difluoroethyl)-4-oxo-3,4-dihydroquinazolin-2-yl)-2-(3,5-difluorophenyl)ethyl)-2-((3bS,4aR)-3-(difluoromethyl)-5,5-difluoro-3b,4,4a,5-tetrahydro-1H-cyclopropa[3,4]cyclopenta[1,2-c]pyrazol-1-yl)acetamide]	0.069	> 1000
COc1ccc2c(=O)n(-c3ccc(Cl)c4c(NS(C)(=O)=O)nn(C)c34)c([C@H](Cc3cc(F)cc(F)c3)NC(=O)Cn3ccc(C4CC4)n3)nc2n1 [Example 36, (S)—N-(1-(3-(4-chloro-1-methyl-3-(methylsulfonamido)-1H-indazol-7-yl)-7-methoxy-4-oxo-3,4-dihydropyrido[2,3-d]pyrimidin-2-yl)-2-(3,5-difluorophenyl)ethyl)-2-(3-cyclopropyl-1H-pyrazol-1-yl)acetamide]	0.131	> 1000
CC(C)Oc1ccc2c(=O)n(-c3ccc(Cl)c4c(NS(C)(=O)=O)nn(C)c34)c([C@H](Cc3cc(F)cc(F)c3)NC(=O)Cn3nc(C(F)F)c4c3C(F)(F)[C@@H]3C[C@H]43)nc2c1 [Example 10, N—((S)-1-(3-(4-chloro-1-methyl-3-(methylsulfonamido)-1H-indazol-7-yl)-7-isopropoxy-4-oxo-3,4-dihydroquinazolin-2-yl)-2-(3,5-difluorophenyl)ethyl)-2-((3bS,4aR)-3-(difluoromethyl)-5,5-difluoro-3b,4,4a,5-tetrahydro-1H-cyclopropa[3,4]cyclopenta[1,2-c]pyrazol-1-yl)acetamide]	0.107	> 1000
CCCc1ccc2c(=O)n(-c3ccc(Cl)c4c(NS(C)(=O)=O)nn(C)c34)c([C@H](Cc3cc(F)cc(F)c3)NC(=O)Cn3nc(C(F)F)c4c3C(F)(F)[C@@H]3C[C@H]43)nc2c1 [Example 19, N—((S)-1-(3-(4-chloro-1-methyl-3-(methylsulfonamido)-1H-indazol-7-yl)-4-oxo-7-propyl-3,4-dihydroquinazolin-2-yl)-2-(3,5-difluorophenyl)ethyl)-2-((3bS,4aR)-3-(difluoromethyl)-5,5-difluoro-3b,4,4a,5-tetrahydro-1H-cyclopropa[3,4]cyclopenta[1,2-c]pyrazol-1-yl)acetamide]	0.063	> 1000
CC(C)(C)c1ccc2c(=O)n(-c3ccc(Cl)c4c(NS(=O)(=O)C5CC5)nn(CC(F)F)c34)c([C@H](Cc3cc(F)cc(F)c3)NC(=O)Cn3nc(C(F)F)c4c3C(F)(F)[C@@H]3C[C@H]43)nc2c1 [Example 27, N—((S)-1-(7-(tert-butyl)-3-(4-chloro-3-(cyclopropanesulfonamido)-1-(2,2-difluoroethyl)-1H-indazol-7-yl)-4-oxo-3,4-dihydroquinazolin-2-yl)-2-(3,5-difluorophenyl)ethyl)-2-((3bS,4aR)-3-(difluoromethyl)-5,5-difluoro-3b,4,4a,5-tetrahydro-1H-cyclopropa[3,4]cyclopenta[1,2-c]pyrazol-1-yl)acetamide]	0.61	> 1000
Cn1nc(NS(C)(=O)=O)c2c(Cl)ccc(-n3c([C@H](Cc4cc(F)cc(F)c4)NC(=O)Cn4nc(C(F)F)c5c4C(F)(F)[C@@H]4C[C@H]54)nc4cc(O)ccc4c3=O)c21 [Example 4, N—((S)-1-(3-(4-chloro-1-methyl-3-(methylsulfonamido)-1H-indazol-7-yl)-7-hydroxy-4-oxo-3,4-dihydroquinazolin-2-yl)-2-(3,5-difluorophenyl)ethyl)-2-((3bS,4aR)-3-(difluoromethyl)-5,5-difluoro-3b,4,4a,5-tetrahydro-1H-cyclopropa[3,4]cyclopenta[1,2-c]pyrazol-1-yl)acetamide]	0.273	> 1000
CS(=O)(=O)Nc1nn(CC(F)F)c2c(-n3c([C@H](Cc4cc(F)cc(F)c4)NC(=O)Cn4nc(C(F)F)c5c4C(F)(F)[C@@H]4C[C@H]54)nc4cc(CCC(F)(F)F)ccc4c3=O)ccc(Cl)c12 [Example 23, N—((S)-1-(3-(4-chloro-1-(2,2-difluoroethyl)-3-(methylsulfonamido)-1H-indazol-7-yl)-4-oxo-7-(3,3,3-trifluoropropyl)-3,4-dihydroquinazolin-2-yl)-2-(3,5-difluorophenyl)ethyl)-2-((3bS,4aR)-3-(difluoromethyl)-5,5-difluoro-3b,4,4a,5-tetrahydro-1H-cyclopropa[3,4]cyclopenta[1,2-c]pyrazol-1-yl)acetamide]	0.094	> 1000
Cn1nc(NS(C)(=O)=O)c2c(Cl)ccc(-n3c([C@H](Cc4cc(F)cc(F)c4)NC(=O)Cn4nc(C(F)F)c5c4C(F)(F)[C@@H]4C[C@H]54)nc4cc(CCC(F)(F)F)ccc4c3=O)c21 [Example 21, N—((S)-1-(3-(4-chloro-1-methyl-3-(methylsulfonamido)-1H-indazol-7-yl)-4-oxo-7-(3,3,3-trifluoropropyl)-3,4-dihydroquinazolin-2-yl)-2-(3,5-difluorophenyl)ethyl)-2-((3bS,4aR)-3-(difluoromethyl)-5,5-difluoro-3b,4,4a,5-tetrahydro-1H-cyclopropa[3,4]cyclopenta[1,2-c]pyrazol-1-yl)acetamide]	0.122	> 1000
CC(C)COc1ccc2c(=O)n(-c3ccc(Cl)c4c(NS(C)(=O)=O)nn(C)c34)c([C@H](Cc3cc(F)cc(F)c3)NC(=O)Cn3nc(C(F)F)c4c3C(F)(F)[C@@H]3C[C@H]43)nc2c1 [Example 12, N—((S)-1-(3-(4-chloro-1-methyl-3-(methylsulfonamido)-1H-indazol-7-yl)-7-isobutoxy-4-oxo-3,4-dihydroquinazolin-2-yl)-2-(3,5-difluorophenyl)ethyl)-2-((3bS,4aR)-3-(difluoromethyl)-5,5-difluoro-3b,4,4a,5-tetrahydro-1H-cyclopropa[3,4]cyclopenta[1,2-c]pyrazol-1-yl)acetamide]	0.109	> 1000
CC(C)Cc1ccc2c(=O)n(-c3ccc(Cl)c4c(NS(C)(=O)=O)nn(C)c34)c([C@H](Cc3cc(F)cc(F)c3)NC(=O)Cn3nc(C(F)F)c4c3C(F)(F)[C@@H]3C[C@H]43)nc2c1 [Example 25, N—((S)-1-(3-(4-chloro-1-methyl-3-(methylsulfonamido)-1H-indazol-7-yl)-7-isobutyl-4-oxo-3,4-dihydroquinazolin-2-yl)-2-(3,5-difluorophenyl)ethyl)-2-((3bS,4aR)-3-(difluoromethyl)-5,5-difluoro-3b,4,4a,5-tetrahydro-1H-cyclopropa[3,4]cyclopenta[1,2-c]pyrazol-1-yl)acetamide]	0.167	> 1000
